The source made the active and inactive calls. The calls are words filed in the database; no cut-off is given here. Some results are limits rather than exact numbers.

The target of series [1] is T1, Serine/threonine-protein kinase PLK1 (Homo sapiens, UniProt P53350). Put plainly: Inhibition of polo-like kinase 1 activity.
A short description of series [2]: Apparent permeability of the compound by PAMPA at pH 7.4. On the technique in general: In PAMPA a lipid-coated filter parts donor from acceptor wells.
For series [3], the target named is T2, Serine/threonine-protein kinase Nek2 (Homo sapiens, UniProt P51955).
T2 sequence (P51955 whole entry): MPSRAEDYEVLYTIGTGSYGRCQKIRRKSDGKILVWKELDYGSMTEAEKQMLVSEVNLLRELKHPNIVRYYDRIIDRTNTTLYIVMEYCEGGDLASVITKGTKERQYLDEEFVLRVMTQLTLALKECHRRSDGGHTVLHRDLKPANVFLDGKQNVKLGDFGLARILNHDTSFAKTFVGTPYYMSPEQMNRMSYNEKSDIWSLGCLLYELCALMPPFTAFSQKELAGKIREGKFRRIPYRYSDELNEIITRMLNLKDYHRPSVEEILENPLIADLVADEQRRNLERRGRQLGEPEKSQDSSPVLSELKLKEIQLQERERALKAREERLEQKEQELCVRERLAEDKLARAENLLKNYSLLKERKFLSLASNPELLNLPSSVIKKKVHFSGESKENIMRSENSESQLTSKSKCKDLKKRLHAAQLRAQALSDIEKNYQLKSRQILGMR

For series [4], the target named is T1, Serine/threonine-protein kinase PLK1. The conditions noted are these: 200 uM.
Description: Inhibition of polo-like kinase 1 activity at 200 uM
Series [5] addresses T2, Serine/threonine-protein kinase Nek2. The series is described as follows: Inhibition of NEK2 autophosphorylation preincubated with compound by DELFIA assay.
For series [6] the target is unchanged. Put plainly: Inhibition of NEK2 assessed as inhibition of substrate phosphorylation preincubated for 5 mins before addition of substrate by DELFIA assay.
In series [7] the target is Tyrosine-protein kinase ABL1 (Mus musculus) (UniProt P00520). The series is described as follows: Inhibition of mouse Abl at 2 uM.
The target in series [8] is T1, Serine/threonine-protein kinase PLK1. The series is described as follows: Inhibition of polo-like kinase 1 activity at 100 uM.
Series [9] deals with T3, Serine/threonine-protein kinase Nek2 (Homo sapiens) (UniProt P51955).
T3 sequence (whole entry): T2 sequence (P51955 whole entry)
Put plainly: Inhibition of NEK2 at 200 uM.

T1 sequence (P53350 whole entry): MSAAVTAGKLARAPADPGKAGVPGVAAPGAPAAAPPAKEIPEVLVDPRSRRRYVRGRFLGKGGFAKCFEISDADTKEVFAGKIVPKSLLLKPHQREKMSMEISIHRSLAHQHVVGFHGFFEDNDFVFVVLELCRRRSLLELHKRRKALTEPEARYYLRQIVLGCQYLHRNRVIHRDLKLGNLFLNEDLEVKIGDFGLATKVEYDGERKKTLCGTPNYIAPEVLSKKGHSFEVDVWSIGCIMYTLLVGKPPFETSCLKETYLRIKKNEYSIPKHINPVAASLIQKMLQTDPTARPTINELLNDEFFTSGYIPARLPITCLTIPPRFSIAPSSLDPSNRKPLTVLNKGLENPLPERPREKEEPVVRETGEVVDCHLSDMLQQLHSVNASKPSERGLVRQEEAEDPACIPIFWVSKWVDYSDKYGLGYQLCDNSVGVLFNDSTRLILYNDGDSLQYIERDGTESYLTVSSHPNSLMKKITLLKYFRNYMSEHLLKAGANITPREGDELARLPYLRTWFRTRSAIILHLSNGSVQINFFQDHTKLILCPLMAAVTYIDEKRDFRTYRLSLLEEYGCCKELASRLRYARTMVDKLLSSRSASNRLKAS
Sequence of Tyrosine-protein kinase ABL1 (Mus musculus) (P00520 whole entry): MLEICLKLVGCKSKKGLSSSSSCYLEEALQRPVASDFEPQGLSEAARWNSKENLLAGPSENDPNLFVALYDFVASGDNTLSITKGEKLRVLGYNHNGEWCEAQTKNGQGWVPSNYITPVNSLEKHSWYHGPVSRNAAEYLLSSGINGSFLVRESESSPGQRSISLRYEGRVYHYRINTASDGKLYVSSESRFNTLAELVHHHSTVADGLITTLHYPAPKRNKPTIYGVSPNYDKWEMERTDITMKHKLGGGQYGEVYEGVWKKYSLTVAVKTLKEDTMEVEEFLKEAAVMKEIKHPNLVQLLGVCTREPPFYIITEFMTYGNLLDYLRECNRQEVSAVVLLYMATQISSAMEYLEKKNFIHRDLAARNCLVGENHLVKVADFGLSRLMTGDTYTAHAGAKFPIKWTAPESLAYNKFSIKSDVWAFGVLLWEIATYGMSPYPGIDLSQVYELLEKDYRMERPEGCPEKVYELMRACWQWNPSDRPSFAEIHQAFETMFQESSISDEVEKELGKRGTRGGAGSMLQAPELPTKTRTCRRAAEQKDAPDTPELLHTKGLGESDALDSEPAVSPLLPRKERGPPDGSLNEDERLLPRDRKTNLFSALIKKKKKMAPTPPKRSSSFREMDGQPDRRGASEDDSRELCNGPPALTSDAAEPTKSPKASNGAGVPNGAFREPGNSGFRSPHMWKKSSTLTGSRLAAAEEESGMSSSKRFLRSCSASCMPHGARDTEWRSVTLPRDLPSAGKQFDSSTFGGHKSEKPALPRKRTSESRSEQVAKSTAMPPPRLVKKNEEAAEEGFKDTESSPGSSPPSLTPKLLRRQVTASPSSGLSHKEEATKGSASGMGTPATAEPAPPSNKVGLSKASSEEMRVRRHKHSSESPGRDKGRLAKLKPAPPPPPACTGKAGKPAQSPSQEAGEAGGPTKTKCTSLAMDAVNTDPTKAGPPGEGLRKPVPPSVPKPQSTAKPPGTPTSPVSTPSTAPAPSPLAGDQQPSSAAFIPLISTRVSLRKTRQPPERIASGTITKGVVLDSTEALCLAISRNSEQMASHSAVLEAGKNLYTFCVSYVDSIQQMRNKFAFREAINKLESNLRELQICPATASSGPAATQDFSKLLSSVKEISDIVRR

As usually defined, the IC50 is the concentration needed to halve the response being measured. Consider `CN1CCC(Oc2ccc3ncn(-c4cc(OCc5ccccc5C(F)(F)F)c(C(N)=O)s4)c3c2)CC1`, for which the IC50 in series [1] is less than 0.009 µM.

One may read the Papp as a coefficient for how fast a substance crosses the barrier. In the case of `C[C@@H](Oc1cc(-n2cnc3cc(OC4CCN(C)CC4)ccc32)ccc1C(N)=O)c1ccccc1C(F)(F)F`, the IC50 in [1] came out at 51.3 µM. For the same compound, the Papp in [2] turned out to be 334 nm/s.

For `CN1CCC(Oc2ccc3ncn(-c4cc(OCc5ccccc5)c(C(N)=O)s4)c3c2)CC1`, the half-inhibitory concentration (IC50) in series [1] came out at 0.069 µM; in [3] it was 5.43 µM.

As for `COc1cc(-n2cnc3ccc(OC4CCN(C)CC4)cc32)sc1C(N)=O`, the IC50 in series [1] turned out to be 1.33 µM; in series [3], 64.4 µM.

As to `COc1cc(-n2cnc3ccccc32)sc1C(N)=O`, the concentration for half-maximal inhibition (IC50) in series [1] was determined as 5.31 µM; in series [3], 86 µM.

For `C[C@H](Oc1cc(-n2cnc3cc(OC4CCN(C)CC4)ccc32)ccc1C(N)=O)c1ccccc1C(F)(F)F`, the inhibition result in series [4] is “inactive”.

For the compound `CC(Oc1cc(-n2cnc3ccc(OC4CCN(C)CC4)cc32)sc1C(N)=O)c1ccccc1C(F)(F)F` (racemic), the IC50 was found to be 0.05 µM in series [5] and 0.2 µM in [6].

`CC(Oc1cc(-n2cnc3ccc(OC4CCN(C)CC4)cc32)sc1C(N)=O)c1ccccc1` (racemic): the IC50 is 0.066 µM in [1] and 6.57 µM in [3].

Take `CC(Oc1cc(-n2cnc3ccccc32)sc1C(N)=O)c1ccccc1C(F)(F)F` (racemic): the results for the IC50 in series [1] and in [3] were less than 0.009 µM and more than 50 µM, respectively.

Turning to `CC(Oc1cc(-n2cnc3ccc(OC4CCN(C)CC4)cc32)ccc1C(N)=O)c1ccccc1C(F)(F)F` (racemic), the IC50 in series [1] stood at 0.19 µM; in [3], 0.66 µM.

As to `CC(Oc1cc(-n2cnc3cc(OC4CCN(C)CC4)ccc32)ccc1C(N)=O)c1ccccc1C(F)(F)F` (racemic), it took 87.9 µM to reach half-maximal inhibition in series [1] (IC50). In addition, the inhibition entry in [7] was “Active”.

Take `CC(Oc1cc(-n2cnc3cc(OCCCN(C)C)ccc32)ccc1C(N)=O)c1ccccc1C(F)(F)F` (racemic): the half-inhibitory concentration (IC50) was 15.2 µM in [1] and 0.38 µM in [3].

Regarding `CC(Oc1cc(-n2cnc3cc(OC4CCN(C5CC5)CC4)ccc32)ccc1C(N)=O)c1ccccc1C(F)(F)F` (racemic), the IC50 in series [3] was found to be 2.56 µM. In series [8], the inhibition entry is “inactive”.

As for `CC(Oc1cc(-n2cnc3cc(OC4CCCCC4)ccc32)ccc1C(N)=O)c1ccccc1C(F)(F)F` (racemic), the inhibition result in [9] and in [8] was “inactive” in each case.

The values above are taken from ChEMBL document CHEMBL1687942, “Benzimidazole inhibitors induce a DFG-out conformation of never in mitosis gene A-related kinase 2 (Nek2) without binding to the back pocket and reveal a nonlinear structure-activity relationship” (J Med Chem, 2011).
